Test system: healthy male participants
Assay: Subjective effects, visual analog scales (VAS), methylone trial
Assay type: in vivo, humans
Procedure: Methylone pharmacology was evaluated in a study designed as a randomized, double-blind, placebo-controlled, crossover clinical trial. Four pilot studies were conducted administering methylone at oral doses of 50 (n = 3), 100 (n = 6), 150 (n = 5), and 200 mg (n = 7). Participants attended 3 experimental sessions separated by a one-week wash-out period and received two doses of methylone (one dose per experimental session) compared to placebo, except in the last pilot study in which participants received one dose of methylone, compared to MDMA and placebo. However, in this manuscript, only the results corresponding to the highest methylone doses (n = 12; 150 and 200 mg; mean dose = 179.2 mg) are presented, to enable comparison with clephedrone self-administration. Participants were recruited by word of mouth in the volunteer database of the clinical pharmacology unit.
Methylone hydrochloride of high purity in powder form was acquired from LGC Standards (Teddington, UK) for the controlled study. The Pharmacy Department of the Hospital Universitari Germans Trias i Pujol was responsible for manufacturing, storing, and dispensing identical and opaque soft gelatin capsules containing 50 mg of methylone or a placebo (maltodextrin). Treatment consisted of 5 capsules that combined methylone and/or a placebo to reach the target dose. Details can be found in the previous article.
Subjective effects were evaluated with visual analog scales (VAS), the short form of the Addiction Research Center Inventory (ARCI), and the Evaluation of Subjective Effects of Substances with Abuse Potential questionnaire (VESSPA-SSE). In addition, the Sensitivity to Drug Reinforcement Questionnaire (SDRQ) and a pharmacological identification class questionnaire were used in the controlled study administering methylone.
VAS encompassed several adjectives that participants had to rate from “not at all” (0 mm) to “extremely” (100 mm) according to their sensations. This scale included 28 items: intensity, stimulated, high, good effects, bad effects, liking, changes in distances, changes in colors, changes in shapes, changes in lights, hallucinations (seeing lights or spots), hallucinations (seeing things, animals, insects, or people), changes in hearing, hallucinations (hearing sounds or voices), drowsiness, concentration, dizziness, confusion, different or changed body feeling, unreal body feeling, different surroundings, unreal surroundings, open, trust, feeling close to others, I want to be with other people, I want to hug someone, sexual desire, and sexual arousal.
Participants included in the naturalistic clephedrone study completed VAS at baseline, 0.50, 1, 1.5, 2, 3, 4, and 5 h, and ARCI and VESSPA at baseline, 1, 2, 3, 4, and 5 h after self-administering clephedrone. In the controlled study, VAS was performed at baseline and 0.25, 0.50, 0.75, 1, 1.5, 2, 3, 4, 6, 8, 10, and 24 h, and ARCI and VESSPA at baseline and 1, 2, 3, 4, 6, 8, and 10 h after administering methylone. Participants completed SDRQ and VAS sexual desire and arousal at baseline, 1 and 10 h, and the pharmacological class identification questionnaire at 8 h.
For statistical analysis, values of physiological (SBP, DBP, HR, and T) and subjective effects (VAS, ARCI, and VESSPA-SSE) were baseline–adjusted. Maximum effects (Emax) and the time needed to reach maximum effects (Tmax) were determined, and the area under the curve up to 5 h (AUC0–5h) for clephedrone and up to 6 h (AUC0–6h) for methylone was calculated using the trapezoidal rule. Emax and AUC values are presented as mean ± standard deviation, whereas Tmax is presented in median (range).
To find possible significant changes through the time course compared to baseline, a Dunnett multiple comparison test was carried out to compare each time point with baseline in both drug conditions. […]

[1] = 150 or 200 mg oral, n=12, listed as methylone
[2] = AUC0–6h, 150 or 200 mg oral, n=12

Structure (SMILES): CNC(C)C(=O)c1ccc2c(c1)OCO2 (stereo not shown) [Methylone, 3,4-methylenedioxy-N-methylcathinone]
- VAS Bad effects Emax (150 or 200 mg oral, n=12): 0.17 ± 0.58 mm
- VAS Changes in colors Emax (150 or 200 mg oral, n=12): 0.00 ± 0.00 mm
- VAS Changes in colors Tmax (150 or 200 mg oral, n=12): 0.0 (0.0–0.0) h
- VAS Changes in distances Emax (150 or 200 mg oral, n=12): 1.58 ± 5.48 mm
- VAS Changes in distances Tmax (150 or 200 mg oral, n=12): 0.0 (0.0–1.0) h
- VAS Changes in hearing Emax (150 or 200 mg oral, n=12): 0.42 ± 1.44 mm
- VAS Changes in hearing Tmax (150 or 200 mg oral, n=12): 0.0 (0.0–0.5) h
- VAS Changes in lights Emax (150 or 200 mg oral, n=12): 0.00 ± 0.00 mm
- VAS Changes in lights Tmax (150 or 200 mg oral, n=12): 0.0 (0.0–0.0) h
- VAS Concentration Emax (150 or 200 mg oral, n=12): 2.50 ± 4.21 mm
- VAS Confusion Emax (150 or 200 mg oral, n=12): 1.33 ± 2.57 mm
- VAS Different or changed body feeling Emax (150 or 200 mg oral, n=12): 12.25 ± 10.68 mm
- VAS Different surroundings Emax (150 or 200 mg oral, n=12): 0.33 ± 1.15 mm
- VAS Dizziness Emax (150 or 200 mg oral, n=12): 3.08 ± 5.33 mm
- VAS Drowsiness Emax (150 or 200 mg oral, n=12): 10.17 ± 16.16 mm
- VAS Feeling close to others Emax (150 or 200 mg oral, n=12): 15.92 ± 19.97 mm
- VAS Good effects Emax (150 or 200 mg oral, n=12): 29.75 ± 21.60 mm
- VAS High Emax (150 or 200 mg oral, n=12): 26.67 ± 18.12 mm
- VAS I want to be with other people Emax (150 or 200 mg oral, n=12): 17.42 ± 20.62 mm
- VAS I want to hug someone Emax (150 or 200 mg oral, n=12): 15.33 ± 21.76 mm
- VAS Intensity Emax (150 or 200 mg oral, n=12): 25.17 ± 18.95 mm
- VAS Liking Emax (150 or 200 mg oral, n=12): 30.33 ± 23.26 mm
- VAS Open Emax (150 or 200 mg oral, n=12): 15.67 ± 19.21 mm
- VAS Sexual arousal Emax (150 or 200 mg oral, n=12): 0.50 ± 1.45 mm
- VAS Sexual desire Emax (150 or 200 mg oral, n=12): 1.08 ± 2.07 mm
- VAS Trust Emax (150 or 200 mg oral, n=12): 15.92 ± 20.07 mm
- VAS Unreal body feeling Emax (150 or 200 mg oral, n=12): 0.00 ± 0.00 mm
- VAS Unreal surroundings Emax (150 or 200 mg oral, n=12): 0.00 ± 0.00 mm
- VAS Feeling close to others Emax [1]: > 15 mm
- VAS Good effects Emax [1]: exceeding 20 mm
- VAS High Emax [1]: exceeding 20 mm
- VAS I want to be with other people Emax [1]: > 15 mm
- VAS I want to hug someone Emax [1]: > 15 mm
- VAS Intensity Emax [1]: exceeding 20 mm
- VAS Liking Emax [1]: exceeding 20 mm
- VAS Open Emax [1]: > 15 mm
- VAS Stimulated Emax [1]: exceeding 20 mm
- VAS Trust Emax [1]: > 15 mm
- VAS Bad effects AUC0-5/6 h [2]: 0.06 ± 0.22 mm·h
- VAS Changes in colors AUC0-5/6 h [2]: 0.00 ± 0.00 mm·h
- VAS Changes in distances AUC0-5/6 h [2]: 0.72 ± 2.49 mm·h
- VAS Changes in hearing AUC0-5/6 h [2]: 0.10 ± 0.36 mm·h
- VAS Changes in lights AUC0-5/6 h [2]: 0.00 ± 0.00 mm·h
- VAS Concentration AUC0-5/6 h [2]: 1.95 ± 3.58 mm·h
- VAS Confusion AUC0-5/6 h [2]: 1.46 ± 3.43 mm·h
- VAS Different or changed body feeling AUC0-5/6 h [2]: 7.96 ± 8.16 mm·h
- VAS Different surroundings AUC0-5/6 h [2]: 0.17 ± 0.58 mm·h
- VAS Dizziness AUC0-5/6 h [2]: 3.31 ± 6.88 mm·h
- VAS Drowsiness AUC0-5/6 h [2]: 19.98 ± 33.41 mm·h
- VAS Feeling close to others AUC0-5/6 h [2]: 14.20 ± 16.71 mm·h
- VAS Good effects AUC0-5/6 h [2]: 26.38 ± 22.79 mm·h
- VAS High AUC0-5/6 h [2]: 22.85 ± 18.54 mm·h
- VAS I want to be with other people AUC0-5/6 h [2]: 16.94 ± 19.79 mm·h
- VAS I want to hug someone AUC0-5/6 h [2]: 14.27 ± 19.51 mm·h
- VAS Intensity AUC0-5/6 h [2]: 20.30 ± 18.35 mm·h
- VAS Liking AUC0-5/6 h [2]: 28.45 ± 24.43 mm·h
- VAS Open AUC0-5/6 h [2]: 15.04 ± 17.47 mm·h
- VAS Sexual arousal AUC0-5/6 h [2]: 2.50 ± 7.23 mm·h
- VAS Sexual desire AUC0-5/6 h [2]: 5.42 ± 10.33 mm·h
- VAS Stimulated AUC0-5/6 h [2]: 20.30 ± 18.35 mm·h
- VAS Trust AUC0-5/6 h [2]: 15.08 ± 18.74 mm·h
- VAS Unreal body feeling AUC0-5/6 h [2]: 0.00 ± 0.00 mm·h
- VAS Unreal surroundings AUC0-5/6 h [2]: 0.00 ± 0.00 mm·h
- Time of peak pharmacological effects (oral): 0.75–1 h

From article PMC12785453, “Oral Fluid Concentrations and Pharmacological Effects of Clephedrone and Methylone in Humans” (International Journal of Molecular Sciences, 2025)
